# Where “and” joins values, the source holds several entries; their conditions need not be identical. Identical values can stand only once. Like-named read-outs stand apart in the source and are kept apart here. No end group written: not given here.
# Assays:
# Klebsiella pneumoniae = conditions: K. pneumoniae
# [1] = system: methicillin-sensitive coagulase-negative staphylococci (MSSCNS)
# M. tuberculosis = test: MIC test by the third party; type: cell-based, Mycobacterium tuberculosis
# Corynebacterium acnes = conditions: C. acnes
# Bordetella pertussis = conditions: B. pertussis
# [2] = system: methicillin-resistant coagulase-negative staphylococci (MRSCNS)
# Neisseria meningitidis = conditions: N. meningitidis
# Haemophilus influenza = conditions: H. influenzae
# Bacteroides fragilis = test: Bacteriostasis experiment on anaerobic bacterium, 96-well plate MIC; type: cell-based
# [3] = system: Streptococcus hemolyticus / S. pyogenes (β-hemolytic streptococcus); conditions: for Minimum inhibitory concentration MIC: test by the third party
# [4] = system: Corynebacterium diphtheriae; conditions: C. diphtheriae
# [5] = system: Shigella dysentery (dysentery bacilli)
# Clostridium tetani = type: cell-based
# [6] = system: Methicillin-resistant Staphylococcus aureus (MRSA)
# Acinetobacter baumannii = conditions: A. baumannii (clinically isolated strain, 2 strains in Table 3)
# Serratia fonticola = conditions: S. fonticola
# Neisseria gonorrhoeae = conditions: N. gonorrhoeae
# Clostridium perfringens = type: cell-based
sequence,measurement,setting,value
"FIRIARLLRIF [Ctryamp, FIRIARLLRIF]",Minimum inhibitory concentration MIC,Klebsiella pneumoniae,25 µg/mL
same,Minimum inhibitory concentration MIC,Citrobacter,12.5 µg/mL
same,Minimum inhibitory concentration MIC,"[1]; MSSCNS, 5 strains, test by the third party",4 µg/mL
same,MIC,[1]; methicillin-sensitive coagulase-negative staphylococci,3.13 to 12.5 µg/mL
same,Minimum inhibitory concentration MIC,M. tuberculosis,25 µg/mL
same,Minimum inhibitory concentration MIC,Corynebacterium acnes,3.13 µg/mL
same,Minimum inhibitory concentration MIC,Bordetella pertussis,3.13 µg/mL
same,Minimum inhibitory concentration MIC,E. faecium,25 µg/mL
same,Minimum inhibitory concentration MIC,"[2]; 11 strains, test by the third party",4 µg/mL
same,Minimum inhibitory concentration,"[2]; stated jointly with MRSA, 4-8 = test results from the third party",3.13 to 12.5 µg/mL and 4 to 8 µg/mL
same,Minimum inhibitory concentration MIC,Neisseria meningitidis,6.25 µg/mL
same,Minimum inhibitory concentration MIC,"Escherichia coli; ATCC25922 (non-ESBLs-producing), test by the third party",4 µg/mL
same,Minimum inhibitory concentration MIC,"Escherichia coli; ATCC35218 (ESBLs-producing), test by the third party",4 µg/mL
same,Minimum inhibitory concentration MIC,Escherichia coli; E. coli ATCC25922 (standard strain),6.25 µg/mL
same,Minimum inhibitory concentration MIC,"Escherichia coli; E. coli clinically isolated strain, 8 strains",6.25 to 12.5 µg/mL
same,Minimum inhibitory concentration MIC,"Escherichia coli; ESBLs-producing E. coli, 10 strains, test by the third party",4 to 8 µg/mL
same,Minimum inhibitory concentration MIC,"Escherichia coli; Escherichia coli, strain not specified (Table 8)",6.25 to 12.5 µg/mL and 6.25 µg/mL
same,inhibition rate,"Escherichia coli; at 6.25 μg/mL, Escherichia coli CCTCCAB94012",100%
same,Minimum inhibitory concentration MIC,"Escherichia coli; non-ESBLs-producing E. coli, 4 strains, test by the third party",4 to 8 µg/mL
same,Minimum inhibitory concentration MIC,Escherichia coli; standard Escherichia coli (Table 2),12.5 µg/mL
same,Minimum inhibitory concentration MIC,Haemophilus influenza,3.13 µg/mL
same,Minimum inhibitory concentration MIC,Bacteroides fragilis,12.5 µg/mL
same,Minimum inhibitory concentration MIC,"[3]; Erythromycin-resistant S. pyogenes, 11 strains",8 to 16 µg/mL
same,Minimum inhibitory concentration MIC,"[3]; Erythromycin-sensitive S. pyogenes, 4 strains",16 µg/mL
same,Minimum inhibitory concentration MIC,[3]; Streptococcus ATCC 19615 (standard strain),8 µg/mL
same,MIC,[3]; Streptococcus hemolyticus,8 to 16 µg/mL
same,Minimum inhibitory concentration MIC,K. oxytoca,12.5 µg/mL
same,Minimum inhibitory concentration MIC,E. faecalis,50 µg/mL
same,Minimum inhibitory concentration MIC,E. cloacae,12.5 µg/mL
same,Minimum inhibitory concentration MIC,[4],3.13 µg/mL
same,Minimum inhibitory concentration MIC,[5],6.25 µg/mL and 6.5 µg/mL
same,Minimum inhibitory concentration MIC,Clostridium tetani,25 µg/mL
same,Minimum inhibitory concentration MIC,"[6]; MRSA, 5 strains",3.13 to 12.5 µg/mL
same,Minimum inhibitory concentration MIC,"[6]; MRSA, 11 strains, test by the third party",4 to 8 µg/mL
same,Minimum inhibitory concentration MIC,[6]; Methicillin-resistant Staphylococcus aureus (Table 8),6.25 µg/mL
same,MIC,Enterococcus,6.25 µg/mL
same,Minimum inhibitory concentration MIC,Acinetobacter baumannii,12.5 µg/mL
same,Minimum inhibitory concentration MIC,"Pseudomonas aeruginosa; P. aeruginosa ATCC27853 (standard strain), test by the third party",8 µg/mL
same,Minimum inhibitory concentration MIC,"Pseudomonas aeruginosa; P. aeruginosa IPM-R strain, 8 strains, test by the third party",8 to 16 µg/mL
same,Minimum inhibitory concentration MIC,"Pseudomonas aeruginosa; P. aeruginosa IPM-S strain, 4 strains, test by the third party",8 to 16 µg/mL
same,Minimum inhibitory concentration MIC,"Pseudomonas aeruginosa; Pseudomonas aeruginosa, strain not specified (Table 8)",8 µg/mL
same,Minimum inhibitory concentration MIC,Serratia fonticola,12.5 µg/mL
same,MIC,Proteusbacillus vulgaris,6.25 µg/mL
same,Minimum inhibitory concentration MIC,Neisseria gonorrhoeae,6.25 µg/mL
same,Minimum inhibitory concentration MIC,S. pneumoniae,3.13 µg/mL
same,Minimum inhibitory concentration MIC,"Staphylococcus aureus; S. aureus ATCC 29213, test by the third party",8 µg/mL
same,Minimum inhibitory concentration MIC,"Staphylococcus aureus; S. aureus clinically isolated strain, 17 strains",1.63 to 6.25 µg/mL
same,Minimum inhibitory concentration MIC,Staphylococcus aureus; S. aureus standard strain ATCC25923,6.25 µg/mL
same,inhibition rate,"Staphylococcus aureus; at 6.25 μg/mL, Staphylococcus aureus CCTCCAB94004",100%
same,Minimum inhibitory concentration MIC,Staphylococcus aureus; standard Staphylococcus aureus (Table 2),6.25 µg/mL
same,Minimum inhibitory concentration MIC,Salmonella typhimurium,12.5 µg/mL
same,Minimum inhibitory concentration MIC,Clostridium perfringens,25 µg/mL
same,Minimum inhibitory concentration MIC,S. agalactiae,25 µg/mL
